The values below come from ChEMBL document CHEMBL5120810, “Toporosides A and B, Cyclopentenyl-Containing ω-Glycosylated Fatty Acid Amides, and Toporosides C and D from the Northwestern Pacific Marine Sponge Stelodoryx toporoki” (2022).

The test relates to H9c2. The test can be described thus: Cardioprotective activity against TNF-alpha induced rat H9c2 cells assessed as increase in cell viability at 2.5 uM pretreated with TNF-alpha for 1 hr followed by compound addition measured after 48 hrs by MTT assay relative to control. It is filed as functional. In general terms: Tetrazolium assays rely on reduction of a dye to a coloured formazan, in cell work by metabolically active cells.
As for `CO[C@@H](CC/C=C\CCCCC(=O)C1=C(CC/C=C\CCCCCCCCO[C@@H]2O[C@H](C(=O)O)[C@@H](O)[C@H](O)[C@H]2O)CCC1)C(=O)NCCc1ccc(O)c(O)c1`, the Activity is given as 23%.

With `CO[C@@H](CC/C=C\CCCCC(=O)CCCCC(=O)CC/C=C\CCCCCCCCO[C@@H]1O[C@H](C(=O)O)[C@@H](O)[C@H](O)[C@H]1O)C(=O)NCCc1ccc(O)c(O)c1`, the Activity worked out at 25%.

Consider `CO[C@@H](CC/C=C\CCCCC(=O)CCCCC(=O)CCCCCCCCCCO[C@@H]1O[C@H](C(=O)O)[C@@H](O)[C@H](O)[C@H]1O)C(=O)NCCc1ccc(O)c(O)c1`, for which the Activity came to 18%.
